Assay results published in US10913750B2, “Tubulin-binding compounds, compositions and uses related thereto” (The Regents of the University of California, priority 2015, dated 2021).

Assays:
tubulin = target: T1, tubulin (Sus scrofa, UniProt P02554); test: In vitro tubulin polymerization assay (HTS-tubulin polymerization kit, Cytoskeleton); assay type: biochemical; settings: 3 μM compound, fluorescence, 70 minutes at 37° C.
T1 construct: purchased Cytoskeleton Inc. BK011P
Procedure: 1.5 ul of 10× strength compound, 20 μl of tubulin solution and Triton X-100 at a final concentration of 0.01% were added to each well in a 384 well plate. The reactions were assembled on ice to prevent tubulin pre-polymerization. For kinetic measurements, microtubule polymerization was monitored by reading the fluorescence at 420 nm (due to the incorporation of a fluorescent reporter into microtubules as polymerization occurs) every ten seconds using a Tecan M1000 microplate reader (FIG. 6B). […] Fluorescence increased as polymerization occurred, due to the incorporation of 4′,6-diamidino-2-phenylindole. Fluorescence was monitored every minute for 70 minutes at 37° C.
Tubulin polymerization reactions were carried out according to the manufacturer (Cytoskeleton, BK011P) in the presence of 3 μM colchicine, MI-181, taxol or DMSO. Polymerization was monitored with a Tecan M1000 micro-plate reader at 420 nm for 70 minutes at 37° C. The results are depicted in FIG. 11.

[1] = test system: patient-derived glioblastoma cells (HK-309); test: CellTiter-Glo cell viability, patient-derived glioblastoma cells; assay type: cell-based; settings: HK-309, 72 hours
Procedure: (§1) The cell viability IC50 of each compound was determined using Promega CellTiter-Glo Luminescent Cell Viability Assay kit by measuring the total ATP levels to quantify the number of metabolically active cells upon drug treatment as described in Crouch et al., J Immunol Methods 1993, 160, (1), 81-8. Briefly, the compounds were suspended in DMSO at 10 mM and diluted in 384 plates (20 μl/well in DMSO) in triplicate by a 14-point titration (12 nM to 100 μM). 50 μl of HeLa cells or patient derived glioblastoma cells (HK-309) (2000 cells/well) were then treated with the prepared dilutions of the drugs (0.5 μl) and incubated at 37° C. and 5% CO2. 72 hours later 50 μl of CellTiter-Glo reagent was added to each well followed by a 2 minutes shaking and a 10-minute incubation to lyse the cells. The relative luminescent intensity units (RLU) of each well was measured using a Tecan M1000 microplate reader (Tecan Group Ltd.) with its green filter and 1 second integration time.
(§2) Cells used in Example 2 and other examples disclosed herein were cultured as follows: Adherent HeLa cells and patient derived glioblastoma cells were grown with 5% CO2 at 37° C. in F12:DMEM 50:50 medium (Invitrogen) containing 10% FBS and 1% penicillin/streptomycin. To obtain HeLa cells synchronized in mitosis, cycling cells were treated with 2 mM thymidine (Sigma-Aldrich) for eighteen hours, washed three times with PBS, and released into fresh media until they entered mitosis eight hours post-release. Patient-derived glioblastoma cells (HK-309) were collected and grown with approval from the UCLA Institutional Review Board. HK-309 was derived from a recurrent glioblastoma taken from a person. The cells were initially propagated as cancer stem cell-containing spheres in serum-free medium containing basic fibroblast growth factor and epidermal growth factor (Preprotech) as described previously by Visnyei et al., Mol Cancer Ther 2011, 10, (10), 1818-28.

HeLa cells [2] = test: Microtubule stability by immunofluorescence microscopy; assay type: cell-based; settings: increasing concentrations, anti-α-tubulin staining
Procedure: Next, microtubule stability was analyzed in HeLa cells treated with increasing concentrations of each of these three compounds by fixing the cells with 4% paraformaldehyde, staining them with Hoechst 33342 (DNA dye) to visualize their DNA and anti-α-tubulin antibodies to visualize microtubule structures and then imaging them by immunofluorescence microscopy.

HeLa cells [3] = test: CellTiter-Glo cell viability, HeLa cells; assay type: cell-based; settings: Homo sapiens; HeLa cells, 72 hours, CellTiter-Glo
Procedure: as §1, §2
For mitotic arrest IC50s, cells were treated with a twenty-point-2-fold-titration (190 pM to 10 μM) of each compound tested for 20 hours. For cell viability IC50s, cells were treated with a fourteen-point-2-fold-titration (12.2 nM to 100 μM). Mitotic arrest IC50 was determined by measuring the percent G2/M arrest using the Vybrant DyeCycle Green (Invitrogen) assay described above. Cell viability IC50 was determined using the CellTiter-Glo Assay (Promega), which measures total ATP levels. Plates were read with a Tecan M1000 micro-plate reader at 540 nm. The CDD software was used for generating IC50 and IC90 values.

M308 = test: Melanoma colony formation, M308; assay type: cell-based; settings: 10 nM, M308 (second value of pair)
Procedure: (§3) To determine if MI-181 had broad anti-cancer activity, we treated a diverse panel of cancer cell lines including cervical adenocarcinoma (HeLa), breast adenocarcinoma (MCF7), melanoma (M233), osteosarcoma (U205), acute lymphoblastic leukemia (CCRF-CEM), non-small cell lung carcinoma (NCI-H460), and breast adenocarcinoma (MCF7) with MI-181 and determined its cell viability IC50 (FIGS. 13A and 13B). […] Therefore, the efficacy of MI-181 was analyzed in a panel of melanoma cell lines with defined genetic backgrounds including BRAF^V600E and NRAS^Q61L mutations and varied sensitivities to Vemurafenib (BRAF inhibitor) and Trametinib (MEK inhibitor), which are currently used to treat BRAF^V600E melanomas^43,44 (FIG. 10c). […] As a general trend BRAF^V600E cell lines were slightly more sensitive than NRAS^Q61L cell lines and MI-181 was effective in Vemurafenib and Trametinib resistant cell lines (FIG. 10c and Table 3). Finally, we tested the ability of MI-181 to inhibit melanoma colony formation using the M233 and M308 cell lines (both resistant to Vemurafenib). Indeed, MI-181 was a potent inhibitor of colony formation (percentage colony formation for 10 nM MI-181=0.2±0.1 and 0.8±0.7; for 10 nM colchicine=0.1±0.06 and 1.5±0.5; and for 10 nM Vemurafenib=94±7 and 102±5) (FIG. 10d). Thus, MI-181 is a potent inhibitor of melanoma cell lines.

M233 = test: Melanoma colony formation, M233; assay type: cell-based; settings: 10 nM, M233 (first value of pair)
Procedure: as §3

T1 sequence (P02554 whole entry): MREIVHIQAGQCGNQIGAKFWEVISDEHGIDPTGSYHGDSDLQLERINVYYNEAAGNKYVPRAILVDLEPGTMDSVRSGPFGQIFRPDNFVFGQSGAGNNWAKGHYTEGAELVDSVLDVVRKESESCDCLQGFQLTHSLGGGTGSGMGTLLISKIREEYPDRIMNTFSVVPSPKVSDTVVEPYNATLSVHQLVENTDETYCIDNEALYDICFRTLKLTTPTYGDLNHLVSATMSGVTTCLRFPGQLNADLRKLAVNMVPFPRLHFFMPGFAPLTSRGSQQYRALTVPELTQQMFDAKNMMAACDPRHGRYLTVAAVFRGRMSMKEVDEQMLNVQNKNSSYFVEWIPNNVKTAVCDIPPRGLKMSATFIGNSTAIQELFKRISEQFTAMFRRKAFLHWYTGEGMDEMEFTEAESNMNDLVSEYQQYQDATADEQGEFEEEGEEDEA
T1 sequence (P02550 whole entry partner): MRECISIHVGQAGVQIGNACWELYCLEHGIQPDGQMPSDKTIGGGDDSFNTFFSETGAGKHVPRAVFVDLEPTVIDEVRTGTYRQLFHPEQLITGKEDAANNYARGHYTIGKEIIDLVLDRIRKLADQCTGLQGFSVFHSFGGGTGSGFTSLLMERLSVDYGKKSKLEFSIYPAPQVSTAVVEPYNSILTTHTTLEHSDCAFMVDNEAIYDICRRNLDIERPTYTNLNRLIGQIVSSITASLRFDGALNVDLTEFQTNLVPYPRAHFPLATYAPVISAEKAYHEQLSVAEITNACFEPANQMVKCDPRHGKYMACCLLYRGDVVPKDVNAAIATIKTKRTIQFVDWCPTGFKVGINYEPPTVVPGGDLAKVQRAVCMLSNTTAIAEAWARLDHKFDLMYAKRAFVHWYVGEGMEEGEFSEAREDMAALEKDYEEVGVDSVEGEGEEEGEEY

IC50 (HeLa cells [3]) [µM] | SMILES | other results
0.246 | O=c1[nH]c(/C=C/c2ccc(F)cc2F)nc2sc3c(c12)CCCC3 [Compound 10a, (E)-2-(2,4-difluorostyryl)-5,6,7,8-tetrahydrobenzo[4,5]thieno[2,3-d]pyrimidin-4(3H)-one] | inhibition of microtubule (tubulin) polymerization in vitro (tubulin): potent inhibitors of microtubule polymerization similar to colchicine; IC50 [1]: 0.283 µM; microtubule stability in treated cells (HeLa cells [2]): destabilized in a drug dose-dependent manner
0.159 | O=c1[nH]c(/C=C/c2cc(F)ccc2F)nc2sc3c(c12)CCCC3 [Compound 10b, (E)-2-(2,5-difluorostyryl)-5,6,7,8-tetrahydrobenzo[4,5]thieno[2,3-d]pyrimidin-4(3H)-one] | inhibition of microtubule (tubulin) polymerization in vitro (tubulin): potent inhibitors of microtubule polymerization similar to colchicine; IC50 [1]: 0.113 µM; microtubule stability in treated cells (HeLa cells [2]): destabilized in a drug dose-dependent manner
1.11 | O=c1[nH]c(/C=C/c2ccc(F)cc2)nc2sc3c(c12)CCCC3 [Compound 10c, (E)-2-(4-fluorostyryl)-5,6,7,8-tetrahydrobenzo[4,5]thieno[2,3-d]pyrimidin-4(3H)-one] | –
4.21 | COc1cccc(/C=C/c2nc3sc4c(c3c(=O)[nH]2)CCCC4)c1 [Compound 10d, (E)-2-(3-methoxystyryl)-5,6,7,8-tetrahydrobenzo[4,5]thieno[2,3-d]pyrimidin-4(3H)-one] | –
6.31 | CSc1ccc(/C=C/c2nc3sc4c(c3c(=O)[nH]2)CCCC4)cc1 [Compound 10e, (E)-2-(4-methylthiostyryl)-5,6,7,8-tetrahydrobenzo[4,5]thieno[2,3-d]pyrimidin-4(3H)-one] | –
25.9 | CCOc1ccc(/C=C/c2nc3sc4c(c3c(=O)[nH]2)CCCC4)cc1OC [Compound 10f, (E)-2-(4-ethoxy-3-methoxystyryl)-5,6,7,8-tetrahydrobenzo[4,5]thieno[2,3-d]pyrimidin-4(3H)-one] | –
> 100 | Cc1cccc(/C=C/c2nc3sc4c(c3c(=O)[nH]2)CCCC4)c1 [Compound 10g, (E)-2-(3-methylstyryl)-5,6,7,8-tetrahydrobenzo[4,5]thieno[2,3-d]pyrimidin-4(3H)-one] | –
50.9 | COc1ccc(/C=C/c2nc3sc4c(c3c(=O)[nH]2)CCCC4)cc1 [Compound 10h, (E)-2-(4-methoxystyryl)-5,6,7,8-tetrahydrobenzo[4,5]thieno[2,3-d]pyrimidin-4(3H)-one] | –
> 100 | O=c1[nH]c(/C=C/c2ccc(Br)cc2)nc2sc3c(c12)CCCC3 [Compound 10i, (E)-2-(4-bromostyryl)-5,6,7,8-tetrahydrobenzo[4,5]thieno[2,3-d]pyrimidin-4(3H)-one] | –
> 100 | O=c1[nH]c(/C=C/c2ccc(F)c(F)c2)nc2sc3c(c12)CCCC3 [Compound 10j, (E)-2-(3,4-difluorostyryl)-5,6,7,8-tetrahydrobenzo[4,5]thieno[2,3-d]pyrimidin-4(3H)-one] | –
> 100 | COc1ccc(/C=C/c2nc3sc4c(c3c(=O)[nH]2)CCCC4)cc1OC [Compound 10k, (E)-2-(3,4-dimethoxystyryl)-5,6,7,8-tetrahydrobenzo[4,5]thieno[2,3-d]pyrimidin-4(3H)-one] | –
> 100 | CCOc1ccc(/C=C/c2nc3sc4c(c3c(=O)[nH]2)CCCC4)cc1 [Compound 10l, (E)-2-(4-ethoxystyryl)-5,6,7,8-tetrahydrobenzo[4,5]thieno[2,3-d]pyrimidin-4(3H)-one] | –
> 100 | Cc1ccc(/C=C/c2nc3sc4c(c3c(=O)[nH]2)CCCC4)cc1 [Compound 10m, (E)-2-(4-methylstyryl)-5,6,7,8-tetrahydrobenzo[4,5]thieno[2,3-d]pyrimidin-4(3H)-one] | –
> 100 | O=c1[nH]c(/C=C/c2ccccc2C(F)(F)F)nc2sc3c(c12)CCCC3 [Compound 10u] | –
– | CCCS(=O)(=O)Nc1ccc(F)c(C(=O)c2c[nH]c3ncc(-c4ccc(Cl)cc4)cc23)c1F [Vemurafenib] | percentage colony formation (M308): 102±5; percentage colony formation (M233): 94±7
– | COc1cc2c(c(OC)c1OC)-c1ccc(OC)c(=O)cc1[C@@H](NC(C)=O)CC2 [colchicine] | percentage colony formation (M308): 1.5±0.5; percentage colony formation (M233): 0.1±0.06
